From patent US8445503B2, “Inhibitors of polo-like kinase” (Elan Pharmaceuticals, Inc., priority 2009, dated 2013) come the findings set out here.

pIC50: −log10 of the molar value.

What is called pIC50 is the negative decadic logarithm of the IC50, by convention in mol/L.

One test addresses PLK1 (Homo sapiens, UniProt P53350). The test is described as follows: Kinase panel screening at InVitrogen Corporation, PLK1. Particulars: screening at 10 μM compound.
For another test, the target named is ABL1 (Homo sapiens, UniProt P00519). The experiment in a line: Kinase panel screening and titration, ABL1.
Chain of ABL1 (P00519 whole entry): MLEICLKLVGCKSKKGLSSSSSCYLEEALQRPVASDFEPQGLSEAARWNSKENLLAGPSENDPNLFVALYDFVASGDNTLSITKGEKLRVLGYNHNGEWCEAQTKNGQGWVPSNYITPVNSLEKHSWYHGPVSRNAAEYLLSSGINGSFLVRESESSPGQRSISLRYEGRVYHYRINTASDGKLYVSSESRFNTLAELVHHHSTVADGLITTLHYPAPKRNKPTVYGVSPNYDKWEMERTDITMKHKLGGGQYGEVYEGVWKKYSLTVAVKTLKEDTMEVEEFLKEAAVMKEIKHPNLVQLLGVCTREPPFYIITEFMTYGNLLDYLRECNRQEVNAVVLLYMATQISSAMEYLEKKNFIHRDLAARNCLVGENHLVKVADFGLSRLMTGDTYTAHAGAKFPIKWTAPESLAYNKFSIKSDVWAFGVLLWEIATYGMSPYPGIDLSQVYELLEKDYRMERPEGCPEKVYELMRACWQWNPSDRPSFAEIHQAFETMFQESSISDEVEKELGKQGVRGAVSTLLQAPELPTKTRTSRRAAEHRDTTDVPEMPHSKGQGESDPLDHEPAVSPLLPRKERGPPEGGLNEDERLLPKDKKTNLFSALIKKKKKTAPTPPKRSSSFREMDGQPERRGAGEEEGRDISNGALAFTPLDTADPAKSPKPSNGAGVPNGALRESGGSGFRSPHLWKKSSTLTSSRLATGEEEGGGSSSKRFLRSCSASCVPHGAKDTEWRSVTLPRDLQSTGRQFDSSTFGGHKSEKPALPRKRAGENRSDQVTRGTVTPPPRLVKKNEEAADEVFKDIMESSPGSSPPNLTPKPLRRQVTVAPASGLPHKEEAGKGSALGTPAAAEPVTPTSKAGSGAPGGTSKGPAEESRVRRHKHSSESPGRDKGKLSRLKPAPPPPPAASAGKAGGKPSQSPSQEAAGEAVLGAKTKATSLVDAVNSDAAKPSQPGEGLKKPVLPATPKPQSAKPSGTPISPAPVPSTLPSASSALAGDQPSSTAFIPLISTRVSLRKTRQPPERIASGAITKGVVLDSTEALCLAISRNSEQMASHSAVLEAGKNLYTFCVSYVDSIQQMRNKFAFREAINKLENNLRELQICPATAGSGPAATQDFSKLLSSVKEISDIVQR
Another test concerns the target KDR (Homo sapiens, UniProt P35968). The experiment in a line: Kinase panel screening and titration, KDR.
Test [1] deals with over 300 kinases, including CDK-1, CDK-2, CDK-5, CLK-1, CLK-2, CLK-3, CLK-4, NEK-1, NEK-2, NEK-4, NEK-6, NEK-7, MAP4K4 and STK16. The test is described as follows: Kinase panel screening at InVitrogen Corporation, over 300 kinases. Particulars: 10 μM compound; all but 21 of over 300 kinases, including CDK-1, CDK-2, CDK-5, CLK-1 to CLK-4, NEK-1, -2, -4, -6, -7, MAP4K4, STK16.
The next test has as its target PLK2 (Homo sapiens, UniProt Q9NYY3). The experiment in a line: Kinase panel screening at InVitrogen Corporation, PLK2. Particulars: screening at 10 μM compound.
A further test deals with T1, GST-PLK3 (Homo sapiens, UniProt Q9H4B4).
T1 construct: purchased CarnaBio
T1 sequence (Q9H4B4 whole entry): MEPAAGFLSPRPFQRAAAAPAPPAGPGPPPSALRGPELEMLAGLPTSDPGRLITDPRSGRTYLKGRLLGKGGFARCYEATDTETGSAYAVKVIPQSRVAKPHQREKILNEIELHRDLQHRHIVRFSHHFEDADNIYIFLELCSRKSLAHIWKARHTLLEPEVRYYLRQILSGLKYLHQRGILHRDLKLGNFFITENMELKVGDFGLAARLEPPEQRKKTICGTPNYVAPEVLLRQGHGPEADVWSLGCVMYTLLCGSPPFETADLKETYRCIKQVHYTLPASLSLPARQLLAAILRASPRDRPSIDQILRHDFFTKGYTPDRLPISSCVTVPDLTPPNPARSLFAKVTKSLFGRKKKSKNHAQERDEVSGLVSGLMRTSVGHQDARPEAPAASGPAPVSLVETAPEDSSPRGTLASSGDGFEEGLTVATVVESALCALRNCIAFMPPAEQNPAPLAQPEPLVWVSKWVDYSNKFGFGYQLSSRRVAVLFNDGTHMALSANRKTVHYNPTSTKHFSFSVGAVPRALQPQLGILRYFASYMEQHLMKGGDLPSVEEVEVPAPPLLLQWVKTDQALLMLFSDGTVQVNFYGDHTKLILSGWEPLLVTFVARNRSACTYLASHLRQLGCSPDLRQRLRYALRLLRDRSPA
The test is described as follows: PLK TR-FRET peptide assay, PLK3. The class given is biochemical. The settings on record: PLK TR-FRET peptide assay, GST-PLK3; read-out: Plk3 IC50. For orientation: TR-FRET usually uses a lanthanide donor and a delayed reading to cut background.

The target of another test is T2, GST-PLK2 (Homo sapiens, UniProt Q9NYY3).
T2 construct: purchased CarnaBio
T2 sequence (Q9NYY3 whole entry): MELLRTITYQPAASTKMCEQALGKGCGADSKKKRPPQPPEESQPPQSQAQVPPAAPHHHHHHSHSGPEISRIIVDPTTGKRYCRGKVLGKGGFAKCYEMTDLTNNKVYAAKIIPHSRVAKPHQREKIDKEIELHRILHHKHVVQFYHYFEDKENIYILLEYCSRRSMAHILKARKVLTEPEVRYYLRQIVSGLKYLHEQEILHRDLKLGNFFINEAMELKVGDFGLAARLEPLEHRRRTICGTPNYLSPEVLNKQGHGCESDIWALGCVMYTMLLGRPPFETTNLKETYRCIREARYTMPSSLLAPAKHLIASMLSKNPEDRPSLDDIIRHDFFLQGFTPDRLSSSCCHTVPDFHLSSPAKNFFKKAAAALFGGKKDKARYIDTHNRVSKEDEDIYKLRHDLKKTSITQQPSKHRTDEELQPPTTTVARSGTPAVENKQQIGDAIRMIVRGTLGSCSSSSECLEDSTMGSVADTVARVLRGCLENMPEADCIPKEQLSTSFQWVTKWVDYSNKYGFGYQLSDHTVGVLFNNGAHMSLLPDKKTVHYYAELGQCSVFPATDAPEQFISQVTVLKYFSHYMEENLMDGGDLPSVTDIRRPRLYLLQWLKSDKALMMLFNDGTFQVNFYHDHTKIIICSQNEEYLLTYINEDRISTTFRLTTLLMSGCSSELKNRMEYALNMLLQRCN
The experiment in a line: PLK TR-FRET peptide assay, PLK2. The class given is biochemical. Particulars: PLK TR-FRET peptide assay, GST-PLK2; read-out: Plk2 IC50.

A further test addresses GST-PLK1 (Homo sapiens, UniProt P53350). The experiment in a line: PLK TR-FRET peptide assay, PLK1. The class given is biochemical. The settings on record: read-out: Plk1 IC50.

Chain of PLK2 (Q9NYY3 whole entry): as above
Chain of PLK1 (P53350 whole entry): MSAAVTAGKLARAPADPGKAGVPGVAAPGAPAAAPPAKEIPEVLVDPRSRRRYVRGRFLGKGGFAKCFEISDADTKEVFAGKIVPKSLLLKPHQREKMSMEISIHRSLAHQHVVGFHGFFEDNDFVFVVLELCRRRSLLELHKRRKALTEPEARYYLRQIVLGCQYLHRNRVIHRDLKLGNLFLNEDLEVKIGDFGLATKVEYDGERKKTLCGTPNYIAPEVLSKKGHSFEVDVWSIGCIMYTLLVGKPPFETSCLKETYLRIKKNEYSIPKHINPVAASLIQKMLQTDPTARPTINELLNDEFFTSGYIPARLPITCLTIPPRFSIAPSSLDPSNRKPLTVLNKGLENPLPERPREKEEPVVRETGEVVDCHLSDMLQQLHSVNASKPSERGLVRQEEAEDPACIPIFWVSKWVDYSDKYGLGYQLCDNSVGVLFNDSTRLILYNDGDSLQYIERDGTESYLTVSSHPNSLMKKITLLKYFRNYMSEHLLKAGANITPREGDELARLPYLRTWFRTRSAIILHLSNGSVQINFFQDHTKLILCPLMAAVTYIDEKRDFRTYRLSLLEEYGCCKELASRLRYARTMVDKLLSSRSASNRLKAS
Chain of GST-PLK1 (P53350 whole entry): as above
Chain of KDR (P35968 20-1356): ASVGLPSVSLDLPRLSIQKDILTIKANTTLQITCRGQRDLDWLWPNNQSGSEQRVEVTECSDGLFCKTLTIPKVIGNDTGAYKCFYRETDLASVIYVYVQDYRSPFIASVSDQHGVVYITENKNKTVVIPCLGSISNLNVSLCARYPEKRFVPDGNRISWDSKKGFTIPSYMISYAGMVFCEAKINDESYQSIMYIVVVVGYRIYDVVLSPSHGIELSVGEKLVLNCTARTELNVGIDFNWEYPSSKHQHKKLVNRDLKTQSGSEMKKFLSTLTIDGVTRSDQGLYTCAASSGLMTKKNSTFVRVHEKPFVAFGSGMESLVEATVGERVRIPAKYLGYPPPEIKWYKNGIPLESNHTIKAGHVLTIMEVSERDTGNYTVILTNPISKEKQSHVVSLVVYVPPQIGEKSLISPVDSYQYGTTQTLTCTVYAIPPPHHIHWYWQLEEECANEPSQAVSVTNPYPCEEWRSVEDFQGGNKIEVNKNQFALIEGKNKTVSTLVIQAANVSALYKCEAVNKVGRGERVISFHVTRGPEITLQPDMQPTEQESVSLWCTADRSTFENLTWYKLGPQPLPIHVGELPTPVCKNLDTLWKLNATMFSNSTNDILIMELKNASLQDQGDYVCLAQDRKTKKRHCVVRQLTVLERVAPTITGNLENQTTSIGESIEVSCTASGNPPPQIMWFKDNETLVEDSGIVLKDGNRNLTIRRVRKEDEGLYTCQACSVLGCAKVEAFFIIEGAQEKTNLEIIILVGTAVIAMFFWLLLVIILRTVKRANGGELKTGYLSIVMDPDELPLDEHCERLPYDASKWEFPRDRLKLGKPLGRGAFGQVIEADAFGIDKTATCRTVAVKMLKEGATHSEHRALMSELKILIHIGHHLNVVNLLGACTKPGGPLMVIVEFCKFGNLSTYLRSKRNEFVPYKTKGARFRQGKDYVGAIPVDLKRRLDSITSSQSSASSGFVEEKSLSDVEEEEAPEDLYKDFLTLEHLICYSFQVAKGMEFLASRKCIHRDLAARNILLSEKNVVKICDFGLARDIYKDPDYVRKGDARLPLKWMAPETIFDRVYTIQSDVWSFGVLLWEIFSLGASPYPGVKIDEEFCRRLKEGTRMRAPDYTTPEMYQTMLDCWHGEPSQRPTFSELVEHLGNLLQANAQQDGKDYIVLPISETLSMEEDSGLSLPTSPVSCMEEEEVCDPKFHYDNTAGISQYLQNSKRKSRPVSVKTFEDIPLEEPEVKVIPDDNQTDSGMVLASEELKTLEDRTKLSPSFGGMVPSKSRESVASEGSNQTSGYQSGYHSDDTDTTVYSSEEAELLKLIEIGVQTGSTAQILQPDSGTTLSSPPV

Turning to `CC[C@@H]1C(=O)N(C)c2cnc(-n3ccnc3-c3cccc(F)c3)nc2N1C1CCOC1` (stereo partly drawn) [Example 192], at PLK1, the “activity against PLK1 in kinase panel” value is reported as “potent”. Moreover, on ABL1 (10 μM compound), the “percent inhibition of ABL1” value was “greater than 80%”. Further, the negative-log IC50 (pIC50) at ABL1 (read-out: IC50 ABL1, when titrated) is less than 5.00; at KDR (read-out: IC50 KDR, when titrated), less than 5.00. In addition, the “percent inhibition of KDR” value at KDR (10 μM compound) was “greater than 80%”. Besides, the “percent inhibition of kinase” value in test [1] is “below 40%”. The “activity against PLK2 in kinase panel” value on PLK2 was “potent”.
As to `CC[C@@H]1C(=O)N(C)c2cnc(-n3ccnc3-c3cscn3)nc2N1C1CCCC1` [Example 68], the “activity against PLK1 in kinase panel” value on PLK1 is on record as “potent”. For the same compound, at PLK2, the “activity against PLK2 in kinase panel” value is reported as “potent”.
Regarding `CC[C@@H]1C(=O)N(C)c2cnc(-n3ccnc3-c3ccccc3)nc2N1C1CCCC1` [Example 26, (R)-8-cyclopentyl-7-ethyl-5-methyl-2-(2-phenyl-1H-imidazol-1-yl)-7,8-dihydropteridin-6(5H)-one], the “activity against PLK2 in kinase panel” value at PLK2 was “potent”.
On to `CC[C@@]12CCCN1c1nc(-n3ccnc3-c3ccccc3)ncc1N(C)C2=O` [Example 76, (S)-6a-ethyl-5-methyl-2-(2-phenyl-1H-imidazol-1-yl)-6a,7,8,9-tetrahydropyrrolo[2,1-h]pteridin-6(5H)-one], for which the “activity against PLK1 in kinase panel” value on PLK1 is “potent”. The pIC50 at GST-PLK3 is 5.00 to 6.00; on GST-PLK2 it was more than 6.00; on GST-PLK1, 4.30 to 5.00. For the same compound, at PLK2, the “activity against PLK2 in kinase panel” value is “potent”.
Regarding `CC[C@@H]1C(=O)N(C)c2cnc(-n3ccnc3-c3ncccn3)nc2N1C1CCC1` [Example 183, (R)-8-cyclobutyl-7-ethyl-5-methyl-2-(2-(pyrimidin-2-yl)-1H-imidazol-1-yl)-7,8-dihydropteridin-6(5H)-one], the pIC50 was 4.30 to 5.00 on GST-PLK3, more than 6.00 on GST-PLK2 and 5.00 to 6.00 at GST-PLK1.
In the same order, the values of `CC[C@@H]1C(=O)N(C)c2cnc(-n3cnc(-c4cscn4)c3)nc2N1C1CCCC1` [Example 54, (R)-8-cyclopentyl-7-ethyl-5-methyl-2-(4-(thiazol-4-yl)-1H-imidazol-1-yl)-7,8-dihydropteridin-6(5H)-one] are 5.00 to 6.00, more than 6.00 and more than 6.00.
